The values that follow come from PMC4926143 (Toxins, 2016).

Experiment [1] deals with T1, bovine heart mitochondrial complex II (Bos taurus, UniProt P31039+P35720+Q3T189+Q95123).
T1 construct: bovine heart mitochondrial complex II; purchased Cayman Chemical; host or cells: bovine heart mitochondria (native tissue preparation supplied in the kit)
Description: MitoCheck Complex II Activity Assay (succinate dehydrogenase activity). Format: biochemical. The note with it: bovine heart mitochondria.

In experiment [2] the test system is Aspergillus flavus IMF 47798. In kind it is cell-based.
Another experiment has as its system aflatoxin production. The note with it: cited from earlier work.
In experiment [3] the test system is Aspergillus flavus IMF 47798. Format: cell-based. This is another data set of the same source.
A further experiment relates to aflR and pksA mRNA. Description: RT-qPCR of aflR and pksA mRNA levels in A. flavus. Format: cell-based, Aspergillus flavus. The note with it: 0.05 mM, normalized to β-tubulin mRNA. The method, then: To test the effects of three octyl esters on the mRNA levels of aflR and pksA, A. flavus was cultured with octyl syringate (8), octyl paraben (12), or octyl gallate (14) at the concentrations of 0.05 mM. Subsequently, aflR and pksA mRNA levels were examined by quantitative PCR.
The lyophilized mycelia were ground under liquid nitrogen using a mortar and pestle. Total RNA was extracted with TRIzol reagent (Thermo Fisher Scientific, Waltham, MA, USA) and purified with the PureLink RNA Mini Kit (Thermo Fisher Scientific), according to manufacturer’s protocol. The cDNA was prepared with the ReverTra Ace qPCR RT Master Mix (TOYOBO, Osaka, Japan), according to manufacturer’s protocol. The cDNA derived from 0.05 μg of total RNA was used as a qPCR template. qPCR was carried out using FastStart Universal SYBR Green Master (Rox) (Roche, Basel, Switzerland) in a final volume of 25 μL for each reaction and an ABI 7300 Real-Time PCR System (Thermo Fisher Scientific). Two-step PCR conditions were as follows: after an initial incubation at 95 °C for 10 min, 40 cycles of 95 °C for 15 s and 60 °C for 1 min were performed. The amount of aflR and pksA mRNA were normalized to the amount of β-tubulin mRNA (control gene) in each sample. PCR primers used for each gene were as follows: β-tubulin 5′-[…]-3′ and 5′-[…]-3′; AflR 5′-[…]-3′ and 5′-[…]-3′; pksA 5′-[…]-3′ and 5′-[…]-3′.
(In general: Quantitative PCR measures a nucleic acid by following its amplification.)

The next experiment deals with A. flavus ATCC 9170. On the set-up: method as in PMID 19232493. Particulars: cited from earlier work.
Another experiment has as its system A. flavus. The note with it: cited from earlier work.
Setting [4] is: read-out: IC50, mitochondrial complex II.

In brackets after ≈: the same amount, converted by molar mass. Entries after “also recorded” stand apart in the source; their conditions may differ. Read-outs that look alike come from different tables or passages of the source.

T1 sequence (P31039 44-665): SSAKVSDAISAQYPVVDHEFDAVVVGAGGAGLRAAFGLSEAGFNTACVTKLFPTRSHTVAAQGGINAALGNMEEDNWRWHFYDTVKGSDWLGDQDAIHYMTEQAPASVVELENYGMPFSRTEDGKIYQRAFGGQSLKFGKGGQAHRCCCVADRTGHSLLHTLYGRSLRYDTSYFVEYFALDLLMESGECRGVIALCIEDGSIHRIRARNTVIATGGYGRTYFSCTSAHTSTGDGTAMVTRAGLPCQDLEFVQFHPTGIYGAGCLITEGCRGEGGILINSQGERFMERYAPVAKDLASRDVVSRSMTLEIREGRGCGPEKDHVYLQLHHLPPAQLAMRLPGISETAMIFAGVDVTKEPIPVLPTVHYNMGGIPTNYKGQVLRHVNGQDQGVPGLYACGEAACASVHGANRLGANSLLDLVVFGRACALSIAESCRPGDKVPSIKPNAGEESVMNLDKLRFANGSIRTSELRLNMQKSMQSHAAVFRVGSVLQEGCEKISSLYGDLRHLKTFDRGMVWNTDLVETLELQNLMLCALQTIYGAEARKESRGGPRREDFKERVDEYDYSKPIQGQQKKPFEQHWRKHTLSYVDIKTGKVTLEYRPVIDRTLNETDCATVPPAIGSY
T1 sequence (Q3T189 29-280): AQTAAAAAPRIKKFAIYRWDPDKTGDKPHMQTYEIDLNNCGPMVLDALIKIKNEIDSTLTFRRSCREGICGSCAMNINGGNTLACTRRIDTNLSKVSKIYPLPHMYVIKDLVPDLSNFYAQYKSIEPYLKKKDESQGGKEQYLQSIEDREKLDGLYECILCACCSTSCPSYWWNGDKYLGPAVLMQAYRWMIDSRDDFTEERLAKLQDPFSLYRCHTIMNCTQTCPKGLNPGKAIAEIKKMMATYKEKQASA
T1 sequence (P35720 30-169): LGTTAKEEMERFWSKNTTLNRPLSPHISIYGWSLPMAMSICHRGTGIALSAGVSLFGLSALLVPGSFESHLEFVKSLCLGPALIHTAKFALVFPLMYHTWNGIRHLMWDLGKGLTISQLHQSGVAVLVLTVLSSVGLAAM
T1 sequence (Q95123 56-158): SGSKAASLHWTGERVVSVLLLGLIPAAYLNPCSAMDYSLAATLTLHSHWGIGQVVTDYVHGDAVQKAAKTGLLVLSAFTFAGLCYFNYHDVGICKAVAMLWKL

On to `CCCOC(=O)c1cc(OC)c(O)c(OC)c1` [compound 3, propyl syringate], for which the IC50 – broadly, the concentration that gives 50% inhibition – in experiment [1] (setting [4]) is above 20000 µM. For the same molecule, in experiment [2], the “inhibition of aflatoxin production” value is on record as “did not inhibit aflatoxin production”.
Regarding `CCCCCOC(=O)c1cc(OC)c(O)c(OC)c1` [compound 5, pentyl syringate], the concentration for half-maximal inhibition (IC50) in experiment [1] (setting [4]) amounted to 2800 µM. In experiment [2], the “inhibition of aflatoxin production” value is given as “inhibited aflatoxin production very strongly”.
On to `CCCCCCCOC(=O)c1cc(OC)c(O)c(OC)c1` [compound 7, heptyl syringate], for which the IC50 in experiment [1] (setting [4]) was determined as 1300 µM. Besides, the “inhibition of aflatoxin production” value in experiment [2] is “inhibited aflatoxin production very strongly”.
On to `Cc1cc(O)c2c(c1)O[C@@]1(C)CC[C@H]3C(C)(C)CCC[C@]34CO[C@@H]2[C@H]41` [siccanin], for which, in the experiment on aflatoxin production, the “inhibition of aflatoxin production by complex II inhibitors” value (“inhibition … by complex II inhibitors” below) was “inhibited aflatoxin production with selectivity”.
For the molecule `CCCCCCCCOC(=O)c1cc(OC)c(O)c(OC)c1` [compound 8, Octyl syringate], in experiment [1] (setting [4]), the concentration for half-maximal inhibition (IC50) came to 340 µM. The “fungal mycelial weight after five and six days of cultivation” value in experiment [3] was “without changing”. Moreover, the “inhibition of aflatoxin production” value in experiment [2] is recorded as “inhibited aflatoxin production very strongly”. For the same molecule, in the experiment on aflR and pksA mRNA, the “aflR mRNA level” value is on record as “None of the three octyl esters affected” and the “pksA mRNA level” value is listed as “None of the three octyl esters affected”.
For the molecule `Cc1ccccc1C(=O)Nc1cccc(OC(C)C)c1` [mepronil], the “inhibition … by complex II inhibitors” value with aflatoxin production was “inhibited aflatoxin production with selectivity”.
For the molecule `CCCCCCCCOC(=O)c1cc(O)c(O)c(O)c1` [compound 14, Octyl gallate], in experiment [1] (setting [4]), the concentration for half-maximal inhibition (IC50) stood at 290 µM. In experiment [3], the “effect on fungal growth” value was “did not affect fungal growth” and the “effect on mycelial weight” value is reported as “reduced the mycelial weight”. Moreover, in experiment [2], the “aflatoxin production inhibitory activity after five and six days of cultivation” value is reported as “maintained”; the “inhibition of aflatoxin production” value was “as strongly as octyl syringate (8) and octyl paraben (12); also recorded: strongly inhibited”. The “minimum inhibitory concentration (MIC)” value with A. flavus ATCC 9170 is 63 µM (≈ 17.8 µg/mL). For the same molecule, in the experiment on aflR and pksA mRNA, the “aflR mRNA level” value is “None of the three octyl esters affected” and the “pksA mRNA level” value was “None of the three octyl esters affected”.
For `COc1[nH]c(=O)c(C(=O)[C@@H](C)C[C@H](C)[C@@H](Cl)CCl)c(O)c1OC` [atpenin A5], in the experiment with aflatoxin production, the “inhibition … by complex II inhibitors” value is listed as “inhibited aflatoxin production with selectivity”.
Regarding `CCOC(=O)c1ccc(O)cc1` [compound 9, ethyl paraben], the “aflatoxin production inhibitory activity (comparison in words)” value in experiment [2] is “weak”.
Turning to `CCCCCCCCOC(=O)c1ccc(O)cc1` [compound 12, octyl paraben], the 50% inhibitory concentration (IC50) in experiment [1] (setting [4]) came to 160 µM. In addition, in experiment [3], the “effect on fungal growth” value is on record as “did not affect fungal growth”. The “aflatoxin production inhibitory activity (comparison in words)” value in experiment [2] is given as “strong”. Further, in the experiment on aflR and pksA mRNA, the “aflR mRNA level” value was “None of the three octyl esters affected” and the “pksA mRNA level” value was “None of the three octyl esters affected”.
For the molecule `CCCOC(=O)c1ccc(O)cc1` [compound 10, Propyl paraben], in experiment [1] (setting [4]), the IC50 is above 20000 µM. For the same molecule, in experiment [2], the “aflatoxin production inhibitory activity (comparison in words)” value is “more strongly than propyl syringate (3) and propyl gallate (15); also recorded: much weaker than that of heptyl paraben (11) and octyl paraben (12)”. Also, in the experiment with A. flavus, the “inhibition of aflatoxin production on a solid culture” value was “inhibit aflatoxin production”.
Take `CCOC(=O)c1cc(OC)c(O)c(OC)c1` [compound 2, Ethyl syringate]: in experiment [1] (highest concentration 20 mM, read-out: IC50, mitochondrial complex II (symbol)), the IC50 was above 20000 µM. In addition, the “inhibition of aflatoxin production” value in experiment [2] is “did not inhibit aflatoxin production”.
On to `O=C(Nc1ccccc1-c1ccc(Cl)cc1)c1cccnc1Cl` [boscalid], for which the half-maximal inhibitory concentration (IC50) in experiment [1] (setting [4]) is 19 µM; in the experiment with aflatoxin production (read-out: IC50 of aflatoxin production inhibition) it was below 0.01 µM. The “inhibition … by complex II inhibitors” value with aflatoxin production was “inhibited aflatoxin production with selectivity”.
For `CCCCCCCOC(=O)c1ccc(O)cc1` [compound 11, heptyl paraben], in experiment [3], the “effect on fungal growth” value is reported as “did not affect fungal growth”. In addition, in experiment [2], the “aflatoxin production inhibitory activity after five and six days of cultivation” value is on record as “maintained”; the “inhibition of aflatoxin production” value is reported as “strong”.
On to `CCCCCCOC(=O)c1cc(OC)c(O)c(OC)c1` [compound 6, hexyl syringate], for which the concentration for half-maximal inhibition (IC50) in experiment [1] (setting [4]) was found to be 1100 µM. In addition, the “inhibition of aflatoxin production” value in experiment [2] is “inhibited aflatoxin production very strongly”.
For `CCCCOC(=O)c1cc(OC)c(O)c(OC)c1` [compound 4, butyl syringate] the same measures were 9700 µM and “strong inhibitory activity”.
